In ChEMBL document CHEMBL4152305, “Studies on 2-phenylquinoline Staphylococcus aureus NorA efflux pump inhibitors: New insights on the C-6 position” (Eur J Med Chem, 2018):
Values after ≈ are worked out from the molar mass of the structure shown. Values belong to the compound of their own block, whether it stands above or below them. Active and inactive are the calls of the source. The calls are words filed in the database; no cut-off is given here.

Assays:
Staphylococcus aureus [1] = assay: Growth inhibition of Staphylococcus aureus ATCC 25923 up to 100 ug/ml in presence of ciprofloxacin by checkerboard assay; assay type: organism-based; conditions: in vivo
Staphylococcus aureus [2] = assay: Growth inhibition of Staphylococcus aureus SA-1199 expressing wild type norA by microdilution method; assay type: organism-based; conditions: in vivo
Staphylococcus aureus [3] = assay: Growth inhibition of Staphylococcus aureus SA-1199B expressing wild type norA and co-expressing GrlA A116E mutant by microdilution method; assay type: organism-based; conditions: in vivo
[4] = target: T1, Quinolone resistance protein NorA (Staphylococcus aureus) (UniProt P0A0J7); assay: Inhibition of Staphylococcus aureus SA-1199B NorA assessed as reduction in EtBr efflux at 50 uM measured over 5 mins by fluorescence assay relative to control
T1 sequence (whole entry): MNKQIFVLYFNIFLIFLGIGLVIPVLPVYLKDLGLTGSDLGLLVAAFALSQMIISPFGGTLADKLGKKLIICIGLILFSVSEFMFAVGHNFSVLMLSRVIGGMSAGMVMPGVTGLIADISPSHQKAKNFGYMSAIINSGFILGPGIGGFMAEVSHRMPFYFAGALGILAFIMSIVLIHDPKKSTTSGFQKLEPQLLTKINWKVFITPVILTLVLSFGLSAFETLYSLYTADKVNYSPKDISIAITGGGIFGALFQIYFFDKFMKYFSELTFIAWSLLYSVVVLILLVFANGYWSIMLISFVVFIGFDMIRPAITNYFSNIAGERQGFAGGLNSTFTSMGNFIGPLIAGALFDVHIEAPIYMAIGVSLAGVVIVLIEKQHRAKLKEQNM

Staphylococcus aureus [5] = assay: Growth inhibition of Staphylococcus aureus ATCC 25923 by microdilution method; assay type: organism-based; conditions: in vivo
[6] = target: T2, Quinolone resistance protein NorA (Staphylococcus aureus, UniProt P0A0J7); assay: Inhibition of Staphylococcus aureus SA-1199B NorA assessed as reduction in EtBr efflux measured over 5 mins by fluorescence assay
T2 sequence (P0A0J7 whole entry): T1 sequence (whole entry)

[7] = target: T1, Quinolone resistance protein NorA (Staphylococcus aureus); assay: Inhibition of Staphylococcus aureus SA-1199 norA assessed as potentiation of ciprofloxacin-induced antibacterial activity up to 100 ug/ml by checkerboard method
[8] = target: T1, Quinolone resistance protein NorA (Staphylococcus aureus); assay: Potency index, ratio of reserpine IC50 to test compound IC50 for Staphylococcus aureus SA-1199B NorA assessed as reduction in EtBr efflux
[9] = target: T1, Quinolone resistance protein NorA (Staphylococcus aureus); assay: Inhibition of Staphylococcus aureus SA-1199B NorA assessed as potentiation of ciprofloxacin-induced antibacterial activity by measuring minimum potetntiation concentration causing 4 fold reduction in ciprofloxacin MIC by ciprofloxacin assay
[10] = Selectivity index, ratio of CC50 for human HepG2 cells to compound effect for inhibition of Staphylococcus aureus SA-1199B NorA assessed as potentiation of ciprofloxacin-induced antibacterial activity by measuring minimum potetntiation concentration causing 4 fold reduction in ciprofloxacin MIC; assay type: toxicity; conditions: read-out: Selectivity Index
[11] = Cytotoxicity against human HepG2 cells assessed as reduction in cell number after 24 hrs by bioluminescence assay; assay type: cell-based

Compound: CCCOc1ccc(-c2cc(OCCN(CC)CC)c3cc(OCCN(CC)CC)ccc3n2)cc1
growth inhibition (GI) (Staphylococcus aureus [1]): Non-Toxic | MIC (Staphylococcus aureus [2]): > 100 µg/mL | MIC (Staphylococcus aureus [3]): > 202.6 µM | inhibition [4]: 81.4% | MIC (Staphylococcus aureus [5]): 100 µg/mL (≈ 203 µM) | IC50 [6]: 10.6 µM | Activity [7]: inactive

Compound: CCCOc1ccc(-c2cc(OCCN3CCCCC3)c3cc(OCCCN4CCOCC4)ccc3n2)cc1
growth inhibition (GI) (Staphylococcus aureus [1]): Non-Toxic | MIC (Staphylococcus aureus [2]): 50 µg/mL (≈ 93.7 µM) | MIC (Staphylococcus aureus [3]): 93.7 µM | inhibition [4]: 93.2% | Ratio IC50 [8]: 2 | MIC (Staphylococcus aureus [5]): 100 µg/mL (≈ 187 µM) | IC50 [6]: 4.4 µM | Activity [9]: 6.25 µg/mL | Activity [7]: inactive

Compound: CCCOc1ccc(-c2cc(OCCN(CC)CC)c3cc(OCCCN4CCOCC4)ccc3n2)cc1
growth inhibition (GI) (Staphylococcus aureus [1]): Non-Toxic | MIC (Staphylococcus aureus [2]): > 100 µg/mL | MIC (Staphylococcus aureus [3]): > 191.7 µM | inhibition [4]: 91.1% | Ratio IC50 [8]: 2 | MIC (Staphylococcus aureus [5]): 100 µg/mL (≈ 192 µM) | IC50 [6]: 5 µM | Activity [9]: 12.5 µg/mL | Activity [7]: inactive

Compound: CCCOc1ccc(-c2cc(OCCN3CCCCC3)c3cc(OCCN(CC)CC)ccc3n2)cc1
growth inhibition (GI) (Staphylococcus aureus [1]): Non-Toxic | MIC (Staphylococcus aureus [2]): 100 µg/mL (≈ 198 µM) | MIC (Staphylococcus aureus [3]): 197.7 µM | inhibition [4]: 91.4% | Ratio IC50 [8]: 2 | MIC (Staphylococcus aureus [5]): 100 µg/mL (≈ 198 µM) | IC50 [6]: 5.2 µM | Activity [9]: 25 µg/mL | Activity [7]: inactive

Compound: CCCOc1ccc(-c2cc(OCCN3CCCCC3)c3cc(OCCCN(C)C)ccc3n2)cc1
growth inhibition (GI) (Staphylococcus aureus [1]): Non-Toxic | MIC (Staphylococcus aureus [2]): 100 µg/mL (≈ 203 µM) | MIC (Staphylococcus aureus [3]): 203.4 µM | inhibition [4]: 92.5% | MIC (Staphylococcus aureus [5]): 100 µg/mL (≈ 203 µM) | IC50 [6]: 7.2 µM | Activity [9]: 6.25 µg/mL | Activity [7]: inactive

Compound: CCCOc1ccc(-c2cc(OCCN(CC)CC)c3cc(O)ccc3n2)cc1
growth inhibition (GI) (Staphylococcus aureus [1]): Non-Toxic | MIC (Staphylococcus aureus [2]): 50 µg/mL (≈ 127 µM) | MIC (Staphylococcus aureus [3]): 126.7 µM | inhibition [4]: 95% | Ratio IC50 [8]: 2 | MIC (Staphylococcus aureus [5]): 50 µg/mL (≈ 127 µM) | IC50 [6]: 5.8 µM | Activity [9]: 1.56 µg/mL | Activity [7]: inactive

Compound: CCCOc1ccc(-c2cc(OCCN(CC)CC)c3cc(OCCCN(C)C)ccc3n2)cc1
growth inhibition (GI) (Staphylococcus aureus [1]): Non-Toxic | MIC (Staphylococcus aureus [2]): > 100 µg/mL | MIC (Staphylococcus aureus [3]): > 208.5 µM | inhibition [4]: 80.9% | MIC (Staphylococcus aureus [5]): 100 µg/mL (≈ 208 µM) | IC50 [6]: 8.8 µM | Activity [7]: inactive

inhibition [4]: 91.1% | Ratio IC50 [8]: 2 | Activity [9]: 0.78 µg/mL | Activity [7]: inactive
Compound: CCCOc1ccc(-c2cc(OCCN(CC)CC)c3cc(OCc4ccccc4)ccc3n2)cc1
growth inhibition (GI) (Staphylococcus aureus [1]): Non-Toxic | MIC (Staphylococcus aureus [2]): > 100 µg/mL | MIC (Staphylococcus aureus [5]): > 100 µg/mL | selectivity ratio [10]: 15.7 | CC50 at 24 h [11]: 12.3 µg/mL (≈ 25.3 µM)

Compound: CCCOc1ccc(-c2cc(OCCN(CC)CC)c3cc(OCCN4CCCCC4)ccc3n2)cc1
growth inhibition (GI) (Staphylococcus aureus [1]): Non-Toxic | MIC (Staphylococcus aureus [2]): Nd(Insoluble) | MIC (Staphylococcus aureus [5]): Nd(Insoluble) | Activity [7]: inactive

Compound: CCCOc1ccc(-c2cc(OCCN3CCCCC3)c3cc(OCCN4CCCCC4)ccc3n2)cc1
growth inhibition (GI) (Staphylococcus aureus [1]): Non-Toxic | MIC (Staphylococcus aureus [2]): Nd(Insoluble) | MIC (Staphylococcus aureus [5]): Nd(Insoluble) | Activity [7]: inactive

Compound: CCCOc1ccc(-c2cc(OCCN(CC)CC)c3ccccc3n2)cc1
selectivity ratio [10]: 3.5 | IC50 [6]: 8.9 µM | Activity [9]: 6.25 µg/mL | CC50 at 24 h [11]: 21.6 µg/mL (≈ 57 µM)

inhibition [4]: 76.3% | Ratio IC50 [8]: 2 | Activity [9]: 0.78 µg/mL | Activity [7]: inactive
Compound: CCCOc1ccc(-c2cc(OCCN3CCCCC3)c3cc(OCc4ccccc4)ccc3n2)cc1
growth inhibition (GI) (Staphylococcus aureus [1]): Non-Toxic | MIC (Staphylococcus aureus [2]): 100 µg/mL (≈ 201 µM) | MIC (Staphylococcus aureus [5]): 100 µg/mL (≈ 201 µM) | selectivity ratio [10]: 43.4 | CC50 at 24 h [11]: 33.8 µg/mL (≈ 68.1 µM)

Compound: CCCOc1ccc(-c2cc(OCCN3CCCCC3)c3ccccc3n2)cc1
selectivity ratio [10]: 24.9 | IC50 [6]: 7.3 µM | Activity [9]: 1.56 µg/mL | CC50 at 24 h [11]: 38.9 µg/mL (≈ 99.6 µM)

Compound: COC(=O)[C@H]1[C@H]2C[C@@H]3c4[nH]c5cc(OC)ccc5c4CCN3C[C@H]2C[C@@H](OC(=O)c2cc(OC)c(OC)c(OC)c2)[C@@H]1OC [RESERPINE]
MIC (Staphylococcus aureus [2]): > 100 µg/mL | MIC (Staphylococcus aureus [3]): > 164 µM | MIC (Staphylococcus aureus [5]): > 100 µg/mL | IC50 [6]: 9.2 µM | Activity [9]: 1.56 µg/mL

Compound: O=C(O)c1cn(C2CC2)c2cc(N3CCNCC3)c(F)cc2c1=O [CIPROFLOXACIN]
MIC (Staphylococcus aureus [2]): 0.63 µg/mL (≈ 1.9 µM) | MIC (Staphylococcus aureus [3]): 10 µg/mL | MIC (Staphylococcus aureus [5]): 0.63 µg/mL (≈ 1.9 µM)

Compound: CCCOc1ccc(-c2cc(OCCN3CCCCC3)c3cc(O)ccc3n2)cc1
growth inhibition (GI) (Staphylococcus aureus [1]): Non-Toxic | MIC (Staphylococcus aureus [2]): 25 µg/mL (≈ 61.5 µM) | MIC (Staphylococcus aureus [3]): 61.5 µM | inhibition [4]: 87% | Ratio IC50 [8]: 2 | MIC (Staphylococcus aureus [5]): 25 µg/mL (≈ 61.5 µM) | IC50 [6]: 3.3 µM | Activity [9]: 6.25 µg/mL | Activity [7]: inactive
